Assay [1] concerns IL-4. In words: Activation-induced IL-4 secretion, ELISA. The note with it: 50 μg/ml for 7 days, anti-CD3 (30 μg/ml) and anti-CD28 (1 μg/ml) for 16 h. The assay is classed as cell-based, human. How it is done: IL-2 and IL-4 concentrations were measured by enzyme-linked immunosorbent (ELISA) assay (BD OptEIA Set Human IL-2/IL-4, Becton Dickinson). Resting peripheral human T-cells (“day 0” T-cells)+/−rotenone (10 μg/ml, 15 min pre-treatment) were stimulated with plate-bound anti-CD3 monoclonal antibody (30 μg/ml) and soluble anti-CD28 monoclonal antibody (1 μg/ml) for 4 h. Next, the supernatants were cleared by centrifugation and the measurements were performed according to the manufacturer's instructions.
Human peripheral blood T-cells from healthy donors or patients with atopic dermatitis were pre-activated by PHA treatment and subsequently cultured for 7 days in presence or absence of 50 μg/ml cipro. Next, T-cells were activated via plate-bound anti-CD3 antibody (30 μg/ml) and soluble anti-CD28 antibody (1 μg/ml) for 16 h. Supernatants were harvested and secreted amounts of IL-4 were measured by ELISA. […] Therefore, inhibition of IL-4 transcription is not compensated by translational or post translational mechanisms.
Background: In an ELISA, binding on a coated surface is turned into a signal by an enzyme label.

In assay [2] the test system is PHA-activated human T-cells. Conditions: short-term (up to 96 hours) or simultaneous treatment; cited from earlier work.
The next assay relates to citrate synthase. The experiment in a line: Activity of citrate synthase in treated T-cells. Format: cell-based. Conditions: prolonged, long-term treatment of pre-activated human T-cells. As to the method:
(§1) Activities of the respiratory chain single enzyme complexes I and II, as well as of citrate synthase, were measured as described previously with minor modifications. Ciprofloxacin-treated cells were depleted of dead cells via Biocoll (Biochrom) gradient centrifugation. The cell number in different batches of ciprofloxacin-treated cells was equalized. For measurement of the enzymatic activities, samples were prepared as described previously with minor modifications. 4×10^7 cells were washed with PBS, shock-frozen in liquid nitrogen and thawed on ice. Next, cells were permeabilized by 15 min incubation with 1 ml of 0.015% digitonin (w/v) in respiratory chain (RC) buffer (250 mM sucrose, 50 mM KCl, 5 mM MgCl2, 20 mM Tris-HCl, pH 7.4), washed with RC buffer and centrifuged at 8 000 rpm for 5 min at 4° C. For a single data point the activity measurement was performed three times in triplicates and the average value was calculated. Steady state activity was recorded in a 96-well plate spectrophotometer using a thermostated chamber and a final volume of 300 μl. Enzymatic activities of complex I and complex II were recorded as NADH oxidation at 340-400 nm and as succinate oxidation at 610-750 nm, respectively. Citrate synthase activity was detected after two additional freeze/thaw cycles as 5,5′-dithiobis-(2-nitrobenzoic acid) (DTNB) reduction at 412 nm.

Assay [3] relates to IL-2. The experiment in a line: IL-2 gene expression, quantitative real-time SYBRGreen PCR (vs GAPDH). Format: cell-based, human. How it is done:
(§2) Quantitative real-time-PCR was performed using the Power SYBR Green PCR Master Mix (Applied Biosystems). Gene expression was analyzed using the 7500 Real-Time PCR Systems and Sequence Detection Software version 1.2.2 (Applied Biosystems). IL-2 and IL-4 gene expression levels were normalized using glyceraldehyde-3-phosphat dehydrogenase (GAPDH) expression levels as an endogenous reference.
(§3) The mean induction ratios were calculated.
(§4) Total cellular RNA was isolated and reverse-transcribed. Expression of IL-2 (see FIG. 4A) and IL-4 (see FIG. 4B) was analyzed using quantitative real-time SYBRGreen PCR. IL-2 and IL-4 expression levels were estimated by gene expression ratio between IL-2 or IL-4 gene and GAPDH genes.
Total cellular RNA was isolated and reverse-transcribed. Expression of IL-2 (see FIG. 5A) and IL-4 (see FIG. 5B) was analyzed using quantitative real-time SYBRGreen PCR. IL-2 and IL-4 expression levels were estimated by gene expression ratio between IL-2 or IL-4 gene and GAPDH genes. […]
(§5) Next, the cells were activated via plate-bound anti-CD3 antibody for 1 h and the gene expression levels for IL-4 (sec FIGS. 6A and 13), IL-2 (see FIGS. 6C and D) and CD95L (see FIGS. 6E and F) were assayed. […] A clear inhibition of TCR induced up-regulation of IL-4, IL-2 and CD95L was detected.

A further assay has as its system CD95L. The experiment in a line: CD95L gene expression, quantitative real-time SYBRGreen PCR (vs GAPDH). Conditions: T-cells from patients with atopic dermatitis, 50 μg/ml for 7 days, anti-CD3 for 1 h. Format: cell-based, human. How it is done: as §2, §5
Assay [4] concerns complex II (succinate dehydrogenase). In words: Activity of complex II in treated T-cells. The assay is classed as cell-based. Conditions: prolonged, long-term treatment of pre-activated human T-cells. As to the method:
as §1

The subject of assay [5] is mitochondrial respiratory complex I (NADH-quinone oxidoreductase). The experiment in a line: Activity of mitochondrial respiratory complex I in treated T-cells, real-time spectrophotometry. The note with it: PHA-pre-activated T-cells treated 7 days; 15 min, 20° C.; normalized to total protein content; three donors. Format: cell-based, human. How it is done: as §1, with “Next, cells were permeabilized by 15 min incubation with 1 ml of 0.015% digitonin (w/v) in respiratory chain (RC) buffer (250 mM sucrose, 50 mM KCl, 5 mM MgCl2, 20 mM Tris-HCl, pH 7.4), washed with RC buffer and centrifuged at 8 000 rpm for 5 min at 4° C.” left out
PHA-pre-activated and treated T-cells (see Example 2.1) were shock-frozen in liquid nitrogen. Next, activity of mitochondrial respiratory complex I (NADH-quinone oxidoreductase) was measured by real-time spectrophotometry. […]

Assay [6] concerns activation-induced ROS generation in pre-activated primary human T-cells. The experiment in a line: Activation-induced ROS generation, H2DCF-DA staining and FACS. Format: cell-based. The note with it: PHA-pre-activated T-cells, 7 days of Cipro treatment, plate-bound anti-CD3 (30 μg/ml), 1 h after activation. How it is done:
Cells were stained with H2DCF-DA (5 μM) for 30 min. Next, cells were then divided and stimulated with either plate-bound anti-CD3 antibody (30 μg/ml) or PMA (10 ng/ml). Treatment was terminated by ice-cold PBS and ROS generation was determined by FACS analysis. If not stated otherwise, ROS generation was quantified as the increase in mean fluorescence intensity (MFI), calculated according to the following formula: increase in
MFI(%)=[(MFIstimulated−MFIunstimulated)/MFIunstimulated]×100 9.
After PHA-pre-activated and 7 days of Cipro treatment, T-cells were stained with redox sensitive fluorescent probe H2DCF-DA (20 min, 37° C.) and subsequently activated via plate-bound agonistic anti-CD3 antibody (30 μg/ml). The level of activation-induced ROS was assessed by FACS measurement 1 h after activation and calculated as percentage increase in MFI (untreated control set to 100%).

Assay [7] concerns IL-2. Conditions: short-term (up to 96 hours) or simultaneous treatment, PHA-activated human T-cells; cited from earlier work.
For assay [8], the system named is IL-4. In words: IL-4 gene expression, quantitative real-time SYBRGreen PCR (vs GAPDH). The assay is classed as cell-based, human. As to the method: as §2, §3, §4
Total cellular RNA was isolated and reverse-transcribed. Expression of IL-2 (see FIG. 5A) and IL-4 (see FIG. 5B) was analyzed using quantitative real-time SYBRGreen PCR. IL-2 and IL-4 expression levels were estimated by gene expression ratio between IL-2 or IL-4 gene and GAPDH genes. Data are shown as fold increase of induction of gene expression, where anti-CD3 activated cells are compared with respective unstimulated controls.
as §5

The mark [9] stands for this setting: PHA-pre-activated primary human T-cells, different amounts of ciprofloxacin for 7 days, not restimulated.
Where [10] appears, read: T-cells from patients with atopic dermatitis, 50 μg/ml for 7 days, anti-CD3 for 1 h.

In the case of `O=C(O)c1cn(C2CC2)c2cc(N3CCNCC3)c(F)cc2c1=O` [ciprofloxacin, 1-cyclopropyl-6-fluoro-1,4-dihydro-4-oxo-7-(1-piperazinyl)-3-quinoline-carboxylic acid], the “CD3/CD28 triggering-induced IL-4 secretion” value in the assay on IL-4 [1] (T-cells from healthy donors) and in the assay on IL-4 [1] (T-cells from patients with atopic dermatitis) was “blocked” throughout. In addition, the “proliferation of PHA-activated human T-cells” value in assay [2] was “enhanced”. For the same compound, the “activity of citrate synthase” value in the assay with citrate synthase is “unaffected”. In the assay with IL-2 [3] (setting [9]), the “basal IL-2 expression” value was “increases basal IL-2 and IL-4 expression slightly”. The “anti-CD3-induced increase in IL-2 transcripts levels” value in the assay with IL-2 [3] (setting [10]) is “clearly blocked”. For the same compound, the “anti-CD3-induced increase in CD95L transcripts levels” value in the assay with CD95L was “clearly blocked”. Further, the “activity of complex II (succinate dehydrogenase)” value in assay [4] was “unaffected”. For the same compound, the “activity of mitochondrial respiratory complex I” value in [5] is reported as “impaired activity”. In addition, the “activation-induced ROS generation” value in [6] is “blocks”. For the same compound, the IL-2 secretion result with IL-2 [7] is recorded as “enhanced”. In addition, the “basal IL-4 levels, treated PHA-pre-activated T cells vs "day 0" T cells” value in the assay with IL-4 [8] (5 healthy donors, 50 μg/ml for 7 days, P<0.05 (0.03125)) is “significant down-regulation”; in the assay with IL-4 [8] (7 patients with atopic dermatitis, 50 μg/ml for 7 days, P<0.01 (0.00781)), “significant down-regulation”. Moreover, in the assay on IL-4 [8] (setting [9]), the “basal IL-4 expression” value is “increases basal IL-2 and IL-4 expression slightly”. The “anti-CD3-induced increase in IL-4 transcripts levels” value in the assay on IL-4 [8] (setting [10]) is “clearly blocked”.
